Tested on: wheat variety 'OSLO'
Assay: Chemical hybridizing agent assay for male sterility (male gametocidal activity), foliar spray, seed counts
Assay type: in vivo
Experimental: The compounds of structure 3 and analogs are applied at a rate of 50-1000 μg/plant to cause pollen sterility. The male gametocidal activity is determined on the wheat variety ‘OSLO’, a double-dwarf hard red spring wheat. The wheat seed is planted to a depth of 0.5 to 1 inch (1-2.5 cm) in a 6-inch long (15 cm) conetainer (a cone shaped container, one seed per conetainer). The conetainers are filled with Metromix 200 potting soil supplemented with a slow release fertilizer, Osmocote and Sierra combined at 93 g/cu ft soil for a NPK of 31-20-24. Micromax with micronutrients is added at 17 g/cu ft rate. Fertilizer supplier is Hummerts, Earth City, Mo. 63045. The RLC-4 conetainers are 1×6 inch (2.5×15 cm) with a capacity of 4 cu in. (Stuewe & Sons, Inc., Corvallis, Oreg., 97333-9461). These are loaded into racks of 100 that occupy a 1.0 ft by 1.0 ft area. After seeding, the racks are placed in growth chambers with 14/10 hour day/night cycle at 18° C. These chambers are equipped with metal halide lamps that deliver approximately 300 μE/m^2/sec. Humidity is maintained at 50%, and plants are watered as needed. Approximately six weeks after seeding, wheat plants are selected for chemical application at or just prior to flag-leaf emergence from the boot (Feekes Scale 7.5-8.0) (Large, 1954. Plant Pathology 3:128-129). Plants are placed in a rack containing cardboard dividers to prevent each from being cross contaminated by an adjacent spray. The following procedures are used to evaluate the activity of the compounds of the invention for inducing male sterility in cereals. The plant heights vary and as uniformity is required for chemical application, the top 0-10 cm are removed by excision, such that the plant height is flush with the top of the divider. Prior to application, a 50 mL solution of DMSO (dimethylsulfoxide) containing the chemical hybridizing agent is diluted with 150 mL of water containing 1% SILWET L-77 surfactant (Witco Corp., Greenwich, Conn. 06831-2559) plus 2% humectant (glycerin, supplied by VWR Scientific Products Co.). The formulated chemicals are applied foliarly as an atomized spray onto the plants. After application, the plants are moved into growth chambers and allowed to grow until the heads emerge from the boot. Prior to anther extrusion (approximately 10 to 14 days after treatment), the plants are placed back into dividers in order to isolate the seed heads and to prevent cross-pollination. The plants are moved to a greenhouse, which has similar environmental conditions as the growth chambers. Approximately one week later (3 weeks after treatment (WAT) and at anther extrusion), open head morphology ratings are initiated. Plants are rated four times over a period of eight days (Table 2). The chemical hybridizing agent Genesis® (a registered Trade Mark of the Monsanto Co) is used as the positive control and for comparative purposes as to the rate of application and the efficacy as determined by percent sterility. The negative control is treatment of the wheat plants with the compounds making up the formulation of surfactant and humectant without the chemical compositions being assayed as chemical hybridizing agents. The data in Table 2 is expressed as % Sterility=(1-(Ave. normalized seed counts of sample/Ave. normalized seed counts of controls))*100 with the treatments comprising foliar application and rate titration at Feekes stage 8, across five replicates. Approximately two weeks after open head ratings are completed (six WAT), seed counts are collected.

[1] = Table 2, rate 50 μg/plant, foliar, Feekes 6
[2] = Table 2, rate 50 μg/plant, foliar, Feekes 8
[3] = Table 2, rate 125 μg/plant, foliar, Feekes 6
[4] = Table 2, rate 125 μg/plant, foliar, Feekes 8
[5] = Table 2, rate 250 μg/plant, foliar, Feekes 6
[6] = Table 2, rate 250 μg/plant, foliar, Feekes 8
[7] = Table 2, rate 500 μg/plant, foliar, Feekes 6
[8] = Table 2, rate 500 μg/plant, foliar, Feekes 8
[9] = Table 2, rate 1000 μg/plant, foliar, Feekes 8

Compound	Sterility (%) [1]	Sterility (%) [2]	Sterility (%) [3]	Sterility (%) [4]	Sterility (%) [5]	Sterility (%) [6]	Sterility (%) [7]	Sterility (%) [8]	Sterility (%) [9]	further results
COP(=O)(OC)c1cnn(-c2ccc(Cl)cc2)c1O [Compound 3a, Dimethyl [1-(4-chlorophenyl)-5-hydroxy-1H-pyrazol-4-yl]phosphonate]	27%	39%	0%	34%	0%	79%	49%	92%		
COP(=O)(OC)c1cnn(-c2ccc(F)cc2)c1O [Compound 3b, Dimethyl [1-(4-fluorophenyl)-5-hydroxy-1H-pyrazol-4-yl]phosphonate]		23%		30%		90%		91%	98%	
COP(=O)(OC)c1cnn(-c2ccccc2Cl)c1O [Compound 3c, Dimethyl [1-(2-chlorophenyl)-5-hydroxy-1H-pyrazol-4-yl]phosphonate]		25%		29%		18%		53%	36%	
COP(=O)(OC)c1cnn(-c2ccc(Br)cc2)c1O [Compound 3d, Dimethyl [1-(4-bromophenyl)-5-hydroxy-1H-pyrazol-4-yl]phosphonate]		0%		0%		17%		15%	54%	
COP(=O)(OC)c1cnn(C2CCCCC2)c1O [Compound 3e, Dimethyl [1-cyclohexyl-5-hydroxy-1H-pyrazol-4-yl]phosphonate]		15%		3%		17%		26%	44%	
O=P(O)(O)C1=CNN(c2ccc(Cl)cc2)C1O (stereo not drawn) [Compound 3j, 2-(4-Chlorophenyl)-3-hydroxy-1H-pyrazol-4-yl phosphonic acid]	4%	31%	7%	13%	0%	0%	35%	12%		
COP(=O)([O-])c1cnn(-c2cc(C)cc(C)c2)c1O.[K+] [Compound 3l, methyl potassium[2-(3,5-dimethylphenyl)-3-hydroxy-1H-pyrazol-4-yl]phosphonate]	0%	12%	17%	28%	39%	24%	54%	39%		
Cc1cc(C)cc(-n2ncc(P(=O)([O-])O)c2O)c1.[K+] [Compound 3n, hydrogen potassium[2-(3,5-dimethylphenyl)-3-hydroxy-1H-pyrazol-4-yl]phosphonate]	7%	15%	7%	11%	10%	4%	31%	20%		
COP(=O)(OC)c1cnn(-c2ccc(Cl)cc2)c1OCc1ccc(Cl)cc1 [Compound 4a, Dimethyl{1-(4-Chlorophenyl)-5-[(4-chlorobenzyl)oxy]-1H-pyrazol-4-yl}phosphonate]	0%	48%	0%	80%	9%	93%	34%	93%		
COP(=O)(OC)c1cnn(-c2ccc(Cl)cc2)c1OCc1ccccc1[N+](=O)[O-] [Compound 4b, Dimethyl{1-(4-chlorophenyl)-5-[(2-nitrobenzyl)oxy]-1H-pyrazol-4-yl}phosphonate]	0%	16%	0%	0%	0%	57%	0%	94%		
CCn1cc(P(=O)(OC)OC)c(=O)n1-c1ccc(Cl)cc1 [Compound 5a, Dimethyl [2-(4-chlorophenyl)-2,3-dihydro-1-ethyl-3-oxo-pyrazol-4-yl]phosphonate]										Sterility (%) (Table 4, rate 50 μg/plant): 11%; Sterility (%) (Table 4, rate 125 μg/plant): 26%; Sterility (%) (Table 4, rate 250 μg/plant): 66%; Sterility (%) (Table 4, rate 500 μg/plant): 29%; Sterility (%) (Table 4, rate 1000 μg/plant): 10%
COP(=O)(OC)c1cn(C2CCCCC2)n(-c2ccc(Cl)cc2)c1=O [Compound 5b, Dimethyl[2-(4-chlorophenyl)-1-cyclohexyl-2,3-dihydro-3-oxo-pyrazol-4-yl]phosphonate]										Sterility (%) (Table 4, rate 50 μg/plant): 0%; Sterility (%) (Table 4, rate 125 μg/plant): 14%; Sterility (%) (Table 4, rate 250 μg/plant): 20%; Sterility (%) (Table 4, rate 500 μg/plant): 23%; Sterility (%) (Table 4, rate 1000 μg/plant): 62%
CCn1cc(P(=O)(OC)OC)c(=O)n1-c1cc(C)cc(C)c1 [Compound 5c, Dimethyl[2-(3,5-dimethylphenyl)-2,3-dihydro-1-ethyl-3-oxo-pyrazol-4-yl]phosphonate]										Sterility (%) (Table 4, rate 50 μg/plant): 8%; Sterility (%) (Table 4, rate 125 μg/plant): 1%; Sterility (%) (Table 4, rate 250 μg/plant): 16%; Sterility (%) (Table 4, rate 500 μg/plant): 48%; Sterility (%) (Table 4, rate 1000 μg/plant): 31%
CCCCn1cc(P(=O)(OC)OC)c(=O)n1-c1cc(C)cc(C)c1 [Compound 5d, Dimethyl[1-butyl-2-(3,5-dimethylphenyl)-2,3-dihydro-3-oxo-pyrazol-4-yl]phosphonate]										Sterility (%) (Table 4, rate 50 μg/plant): 29%; Sterility (%) (Table 4, rate 125 μg/plant): 0%; Sterility (%) (Table 4, rate 250 μg/plant): 28%; Sterility (%) (Table 4, rate 500 μg/plant): 24%; Sterility (%) (Table 4, rate 1000 μg/plant): 41%
COP(=O)(OC)c1cn(-c2ccc(Br)cc2)nc1O [Compound 8a, Dimethyl [1-(4-bromophenyl)-3-hydroxy-1H-pyrazol-4-yl]phosphonate]										Sterility (%) (Table 3, rate 50 μg/plant): 12%; Sterility (%) (Table 3, rate 125 μg/plant): 0%; Sterility (%) (Table 3, rate 250 μg/plant): 44%; Sterility (%) (Table 3, rate 500 μg/plant): 25%; Sterility (%) (Table 3, rate 1000 μg/plant): 15%
COP(=O)(OC)c1c(-c2ccccc2)nn(-c2ccc(Cl)cc2)c1O [Compound 10a, Dimethyl [1-(4-chlorophenyl)-5-hydroxy-3-phenyl-1H-pyrazol-4-yl]phosphonate]		1%		0%		27%		18%	45%	
COP(=O)(OC)c1c(-c2ccccc2)nn(-c2cc(C)cc(C)c2)c1O [Compound 10b, Dimethyl[1-(3,5-dimethylphenyl)-5-hydroxy-3-phenyl-1H-pyrazol-4-yl]phosphonate]		5%		0%		11%		33%	45%	
methyl potassium[4-chlorophenyl-3-hydroxy-1H-pyrazol-4-yl]phosphonate [Compound 3m]	23%	28%	0%	20%	31%	16%	43%	15%		

— patent publication US20020107401A1, “Production of phosphonopyrazoles” (MONSNTO TECHNOLOGY LLC., priority 2000, published 2002)
